From patent publication US20240408222A1, “COMPOUNDS, PHARMACEUTICAL COMPOSITIONS, AND METHODS FOR THE TREATMENT, PREVENTION, OR MANAGEMENT OF HYPERPRO[…]” (VINCERX PHARMA GMBH, priority 2021, published 2024)

Key:
in vivo = conditions: male, rat, plasma, iv
Experimental: Male rats (n=3) were given an intravenous 0.5 or 2.0 mg/kg bolus dose of test article dissolved in plasma with 1% DMSO and 2% ethanol (C30 only). Serial blood samples were collected up to 24 hours post-dose. Plasma was harvested from blood samples and stored frozen until sample analysis. Test article plasma concentrations were analyzed by LC/MS/MS.

786-O [1] = assay: Cytotoxicity in vitro (MTT) in presence/absence of elastase; type: cell-based, human; conditions: 72 h
Experimental: (§1) Cultivation of cells was performed according to standard procedures with the media recommended by the provider. The cells, in a total volume of 100 μL, were seeded in a 96-well plate with a white bottom (#3610). After a 24 h incubation period at 37° C. and […], the medium was exchanged by adding 90 μL fresh medium. The treatment started by adding the test compound in 10 μL of culture medium to the cells in triplicates. Concentrations ranging from 10^−5 M to 10^−13 M were chosen. Two identically treated sets of samples were prepared. One set was treated with the test compound alone, whereas to the second set the compound and 10 nM elastase was added followed by a 72 h incubation period at 37° C. and […]. The proliferation was detected using the MTT assay (ATCC). At the end of the incubation period the MTT reagent was added to all samples for 4 h. Lysis of the cells followed by addition of the detergent was done overnight. The formed dye was detected at 570 nm. The proliferation of untreated but otherwise identically handled cells was define as the 100% value.

HT29 [2] = assay: as above; type: cell-based, human; conditions: 72 h
Experimental: as §1

NCI H292 [3] = assay: as above; type: cell-based, human; conditions: 72 h
Experimental: as §1

SUM149 [4] = assay: as above; type: cell-based; conditions: 72 h
Experimental: as §1

786-O [5] = assay: Cytotoxicity assay (Version 2, automated, AC50) with/without neutrophil elastase; type: cell-based, human; conditions: Version 2, activity concentration at −50%
In short: (§2)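 Metabolic activity is measured by MTT dye formation (570 nm) after cells are exposed for 72 h to compound alone or compound plus 10 nM elastase, spanning 10^−5 to 10^−13 M in triplicate. A 4-parameter Hill fit of normalized data yields the AC50.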

HT29 [6] = assay: as above; type: cell-based, human; conditions: Version 2, activity concentration at −50%
In short: as §2

NCI H292 [7] = assay: as above; type: cell-based, human; conditions: Version 2, activity concentration at −50%
In short: as §2

SUM149 [8] = assay: as above; type: cell-based; conditions: Version 2, activity concentration at −50%
In short: as §2

[9] = with (+) 10 nM neutrophil elastase
[10] = without (−) neutrophil elastase
[11] = HT29, with (+) 10 nM neutrophil elastase
[12] = HT29, without (−) neutrophil elastase
[13] = NCI H292, with (+) 10 nM neutrophil elastase
[14] = NCI H292, without (−) neutrophil elastase
[15] = SUM149, with (+) 10 nM neutrophil elastase
[16] = SUM149, without (−) neutrophil elastase
[17] = HT29, with (+) neutrophil elastase
[18] = NCI H292, with (+) neutrophil elastase
[19] = SUM149, with (+) neutrophil elastase

## CCCNC(=O)Nc1cccc(S(=O)(=O)Nc2cccc([C@@H](CC(=O)O)NC(=O)Nc3ccc(NC(=O)NCCOCCOCCOCCC(=O)NCCCC[C@H](NC(=O)CCOCCOCCOCCNC(=O)Nc4ccc(NC(=O)N[C@H](CC(=O)O)c5cccc(NS(=O)(=O)c6cccc(NC(=O)NCCC)c6)c5)cc4)C(=O)NCCOCCOCCOCCC(=O)N[C@@H](CC(=O)O)C(=O)N4CCC[C@H]4C(=O)N[C@H](C(=O)N=S(C)(=O)Cc4cc5cc(c4)OC(C)CCOc4cc(F)ccc4-c4nc(ncc4F)N5)C(C)C)cc3)c2)c1 (relative stereo) [Compound 30]
In vivo; 0.5 mg/kg
  AUC: 50000 to 150000 ng·h/mL
  Vd: > 0.1 L/kg
  clearance: 0.05 to 0.5 mL/min/kg
  half-life: 10 to 20 h

## CCCNC(=O)Nc1cccc(S(=O)(=O)Nc2cccc([C@H](CC(=O)O)NC(=O)Nc3ccc(NC(=O)NCCOCCOCCOCCC(=O)N[C@@H](CCCCNC(=O)CCOCCOCCOCCNC(=O)Nc4ccc(NC(=O)N[C@H](CC(=O)O)c5cccc(NS(=O)(=O)c6cccc(NC(=O)NCCC)c6)c5)cc4)C(=O)NCCOCCOCCOCCC(=O)N[C@@H](CC(=O)O)C(=O)N4CCC[C@H]4C(=O)N[C@H](C(=O)N=S(C)(=O)Cc4cc5nc(c4)OCCCOc4cc(F)ccc4-c4cc(ncc4F)N5)C(C)C)cc3)c2)c1 (relative stereo) [Compound 33]
In vivo; 2 mg/kg
  AUC: 50000 to 150000 ng·h/mL
  Vd: > 0.1 L/kg
  clearance: 0.5 to 5 mL/min/kg
  half-life: 10 to 20 h

## CCCNC(=O)Nc1cccc(S(=O)(=O)Nc2cccc([C@@H](CC(=O)O)NC(=O)Nc3ccc(NC(=O)NCCOCCOCCOCCC(=O)N[C@@H](CC(=O)O)C(=O)N4CCC[C@H]4C(=O)N[C@H](C(=O)N=[S@](C)(=O)Cc4cc5cc(c4)O[C@H](C)CCOc4cc(F)ccc4-c4nc(ncc4F)N5)C(C)C)cc3)c2)c1 (relative stereo) [Compound 48]
In vivo; 0.5 mg/kg
  AUC: 1000 to 10000 ng·h/mL
  Vd: 0.03 to 0.1 L/kg
  clearance: > 5 mL/min/kg
  half-life: 0.1 to 1 h

## CCCNC(=O)Nc1cccc(S(=O)(=O)Nc2cccc([C@@H](CC(=O)O)NC(=O)Nc3ccc(NC(=O)NCCOCCOCCOCCC(=O)N[C@@H](CC(=O)O)C(=O)N4CCC[C@H]4C(=O)N[C@H](C(=O)N=S(C)(=O)Cc4cc5nc(c4)OCCCOc4cc(F)ccc4-c4cc(ncc4F)N5)C(C)C)cc3)c2)c1 (single isomer, unassigned) [Compound 41, disodium 1-{(2S)-2-(carboxylatomethyl)-17-[4-({[(1R)-2-carboxylato-1-{3-[({3-[(propylcarbamoyl)amino]phenyl}sulfonyl)amino]phenyl}ethyl]carbamoyl}amino)anilino]-4,17-dioxo-7,10,13-trioxa-3,16-diazaheptadecan-1-oyl}-L-prolyl-N—[(R*)—{[15,19-difluoro-3,4-dihydro-2H,11H-10,6-(azeno)-12,16-(metheno)-1,5,11,13-benzodioxadiazacyclooctadecin-8-yl]methyl}(methyl)oxido-lambda^6-sulfanylidene]-L-valinamide]
In vivo; 2 mg/kg
  AUC: 1000 to 10000 ng·h/mL
  Vd: > 0.1 L/kg
  clearance: 0.5 to 5 mL/min/kg
  half-life: 10 to 20 h

## CCCNC(=O)Nc1cccc(S(=O)(=O)Nc2cccc([C@@H](CC(=O)O)NC(=O)Nc3ccc(NC(=O)N(C)CCN(C)CCN(C)CC(=O)N[C@@H](CC(N)=O)C(=O)N4CCC[C@H]4C(=O)N[C@H](C(=O)N=[S@@](C)(=O)Cc4cc5cc(c4)OCCCCOc4cc(F)ccc4-c4nc(ncc4F)N5)C(C)C)cc3)c2)c1 [Compound 5, N-{2-[{2-[({4-[({(1R)-2-Carboxy-1-[3-({3-[(propylcarbamoyl)amino]benzene-1-sulfonyl}amino)phenyl]ethyl}carbamoyl)amino]phenyl}carbamoyl)(methyl)amino]ethyl} (methyl)amino]ethyl}-N-methylglycyl-L-asparaginyl-L-prolyl-N—[(S)-{[16,20-difluoro-2,3,4,5-tetrahydro-12H-13,17-(azeno)-11,7-(metheno)-1,6,12,14-benzodioxadiazacyclononadecin-9-yl]methyl}(methyl)oxo-lambda^6-sulfanylidene]-L-valinamide]
786-O [1]; [9]
  IC50: ≤ 1 nM
786-O [1]; [10]
  IC50: > 100 nM
HT29 [2]; [11]
  IC50: ≤ 1 nM
HT29 [2]; [12]
  IC50: > 100 nM
NCI H292 [3]; [13]
  IC50: 1.1 to 10 nM
NCI H292 [3]; [14]
  IC50: > 100 nM
SUM149 [4]; [15]
  IC50: 1.1 to 10 nM
SUM149 [4]; [16]
  IC50: > 100 nM
786-O [5]; with (+) neutrophil elastase
  AC50: 11 to 100 nM
786-O [5]; [10]
  AC50: > 1000 nM
HT29 [6]; [17]
  AC50: 11 to 100 nM
HT29 [6]; [12]
  AC50: > 1000 nM
NCI H292 [7]; [18]
  AC50: 11 to 100 nM
NCI H292 [7]; [14]
  AC50: 100 to 1000 nM
SUM149 [8]; [19]
  AC50: 11 to 100 nM
SUM149 [8]; [16]
  AC50: > 1000 nM

## CCCNC(=O)Nc1cccc(S(=O)(=O)Nc2cccc([C@H](CC(=O)O)NC(=O)Nc3ccc(NC(=O)NCCOCCOCCOCCC(=O)N[C@@H](CC(=O)O)C(=O)N4CCC[C@H]4C(=O)N[C@H](C(=O)N=[S@@](C)(=O)Cc4cc5cc(c4)OCCCCOc4cc(F)ccc4-c4nc(ncc4F)N5)C(C)C)cc3)c2)c1 [Compound 14]
786-O [1]; [9]
  IC50: ≤ 1 nM
786-O [1]; [10]
  IC50: > 100 nM
HT29 [2]; [11]
  IC50: ≤ 1 nM
HT29 [2]; [12]
  IC50: > 100 nM
NCI H292 [3]; [13]
  IC50: 1.1 to 10 nM
NCI H292 [3]; [14]
  IC50: > 100 nM
SUM149 [4]; [15]
  IC50: ≤ 1 nM
SUM149 [4]; [16]
  IC50: > 100 nM
786-O [5]; with (+) neutrophil elastase
  AC50: 11 to 100 nM
786-O [5]; [10]
  AC50: > 1000 nM
HT29 [6]; [17]
  AC50: 11 to 100 nM
HT29 [6]; [12]
  AC50: > 1000 nM
NCI H292 [7]; [18]
  AC50: 11 to 100 nM
NCI H292 [7]; [14]
  AC50: 100 to 1000 nM
SUM149 [8]; [19]
  AC50: 11 to 100 nM
SUM149 [8]; [16]
  AC50: 100 to 1000 nM

## CCCNC(=O)Nc1cccc(S(=O)(=O)Nc2cccc([C@@H](CC(=O)O)NC(=O)Nc3ccc(NC(=O)NCCOCCOCCOCCC(=O)NCCCC[C@H](NC(=O)CCOCCOCCOCCNC(=O)Nc4ccc(NC(=O)N[C@H](CC(=O)O)c5cccc(NS(=O)(=O)c6cccc(NC(=O)NCCC)c6)c5)cc4)C(=O)NCCOCCOCCOCCC(=O)N[C@@H](CC(=O)O)C(=O)N4CCC[C@H]4C(=O)N[C@H](C(=O)N=[S@@](C)(=O)Cc4cc5cc(c4)OCCCCOc4cc(F)ccc4-c4nc(ncc4F)N5)C(C)C)cc3)c2)c1 [Compound 18]
786-O [1]; [9]
  IC50: 1.1 to 10 nM
786-O [1]; [10]
  IC50: > 100 nM
HT29 [2]; [11]
  IC50: ≤ 1 nM
HT29 [2]; [12]
  IC50: 11 to 100 nM
NCI H292 [3]; [13]
  IC50: 1.1 to 10 nM
NCI H292 [3]; [14]
  IC50: > 100 nM
SUM149 [4]; [15]
  IC50: ≤ 1 nM
SUM149 [4]; [16]
  IC50: 11 to 100 nM
786-O [5]; with (+) neutrophil elastase
  AC50: 11 to 100 nM
786-O [5]; [10]
  AC50: > 1000 nM
HT29 [6]; [17]
  AC50: 11 to 100 nM
HT29 [6]; [12]
  AC50: > 1000 nM
NCI H292 [7]; [18]
  AC50: 11 to 100 nM
NCI H292 [7]; [14]
  AC50: 100 to 1000 nM
SUM149 [8]; [19]
  AC50: ≤ 10 nM
SUM149 [8]; [16]
  AC50: 100 to 1000 nM

## CCCNC(=O)Nc1cccc(S(=O)(=O)Nc2cccc([C@H](CC(=O)O)NC(=O)Nc3ccc(NC(=O)NCCOCCOCCOCCC(=O)NCCCC[C@H](NC(=O)CCOCCOCCOCCNC(=O)Nc4ccc(NC(=O)N[C@@H](CC(=O)O)c5cccc(NS(=O)(=O)c6cccc(NC(=O)NCCC)c6)c5)cc4)C(=O)NCCOCCOCCOCCC(=O)N[C@@H](CC(=O)O)C(=O)N4CCC[C@H]4C(=O)N[C@H](C(=O)N=[S@@](C)(=O)Cc4cc5cc(c4)OCCCCOc4cc(F)ccc4-c4nc(ncc4F)N5)C(C)C)cc3)c2)c1 [Compound 19]
786-O [1]; [9]
  IC50: 1.1 to 10 nM
786-O [1]; [10]
  IC50: > 100 nM
HT29 [2]; [11]
  IC50: ≤ 1 nM
HT29 [2]; [12]
  IC50: 11 to 100 nM
NCI H292 [3]; [13]
  IC50: 1.1 to 10 nM
NCI H292 [3]; [14]
  IC50: 11 to 100 nM
SUM149 [4]; [15]
  IC50: ≤ 1 nM
SUM149 [4]; [16]
  IC50: 1.1 to 10 nM
786-O [5]; with (+) neutrophil elastase
  AC50: 100 to 1000 nM
786-O [5]; [10]
  AC50: 100 to 1000 nM
HT29 [6]; [17]
  AC50: 100 to 1000 nM
HT29 [6]; [12]
  AC50: 100 to 1000 nM
NCI H292 [7]; [18]
  AC50: 11 to 100 nM
NCI H292 [7]; [14]
  AC50: 100 to 1000 nM
SUM149 [8]; [19]
  AC50: 100 to 1000 nM
SUM149 [8]; [16]
  AC50: 100 to 1000 nM
